Results taken from article PMC8746798, “Evaluation of 2-Thioxoimadazolidin-4-one Derivatives as Potent Anti-Cancer Agents through Apoptosis Induction and Antioxidant Activation: In Vitro and In Vivo Approaches” (Molecules, 2021).
“Also recorded” adds a separate entry of the source.

Assays:
HepG2 liver cancer cells = experiment: MTT assay for cytotoxic screening, HepG2; assay type: cell-based, human; conditions: mean ± SE, n = 3
Protocol: The in vitro anti-cancer activity was assessed using the MTT assay. […] Staurosporine and 5-FU were used as reference drugs. HepG2 cells (1 × 10^4 cells/well, 96-well plate) were maintained in DMEM media supplemented with 2mML-glutamine (Lonza, Verviers, Belgium) and 10% FBS (Sigma, St. Louis, MO, USA), 1% Penicillin/Streptomycin (Lonza, Verviers, Belgium) according to the routine culture work. Cultures were incubated for 48 h with serial dilutions (0.01, 0.1, 1, 10, 100 µM) of the tested compounds. Finally, cell viability was determined by measuring the absorbance λ570 nm according to the following formula: % of cell viability = (A sapmple/A control) ×100, then IC50 calculation was calculated using GraphPad Prism 7 software.

[1] = test system: THLE-2 normal liver cells; experiment: MTT assay, normal liver cells; assay type: cell-based; conditions: n = 3
[2] = test system: Solid Ehrlich carcinoma (SEC); experiment: In vivo anti-tumor assay: tumor volume and tumor inhibition ratio; conditions: SEC-bearing mice, 6 mg/kg; SEC control 5802 mm^3
Protocol: We used adult Swiss albino female mice with average body weight 18–23 g obtained from Theodor Bilharzia Research Institute in Giza, Egypt. Mice were kept under constant conditions of a 12 h light–dark cycle at temperatures below controlled moisture conditions (22 ± 2 °C) with standard laboratory mouse nutrition and water entries. Approval for the experimental protocol was provided from the ethical committee of Suez Canal University for this experimental protocol (approval number REC-06-2020, Faculty of Science, Suez Canal University). Mice were adapted for approximately 10 days before use in the experiment.
Solid Ehrlich carcinoma (SEC) was obtained from the National Cancer Institute (University of Cairo, Egypt). The tumor cell line proliferated in mice after serial implantation of the peritoneal cavity (I.P.) in 0.2 mL of physiological saline containing 1 × 10^6 viable cells for 24 h. […]
We measured the length and width of the tumor using a digital Vernier clipper (Tricle Brand, Shanghai, China), then we calculate the tumor volume using the formula: V = (L × W × W)/2, where V is tumor volume, W is tumor width, and L is tumor length, and calculated the tumor inhibition ratio% using the formula: TIR %= (C − T)/C × 100, where T represents mean tumor volume of treated group and C represents mean tumor volume of the control group.

[3] = Hematological parameters (CBC) in mice; assay type: in vivo; conditions: SEC-bearing mice, 6 mg/Kg BW
Protocol: (§1) We randomly divided 50 mice into groups 5 groups (10 mice in each group): normal control (I) (mice injected intraperitoneally with the same volume of solvent for 14 consecutive days); group II, a group of normal mice treated with compound 4 (mice injected intraperitoneally with newly produced compound 4 at a dose of 6 mg/kg per day for 14 days); group III, solid tumor group (mice were implanted with solid tumor); group IV, group were treated with 5-FU (after 10 days of tumor implantation, mice were treated with 6 mg/kg only once); and group V, solid tumor group were treated with compound 4 (after 10 days of tumor implantation, mice were treated with 6 mg/kg only once). after one day of the previous treatment, 10 mice from each group were sacrificed and tumor weight, tumor volume (length and width of solid femoral tumor), blood and liver samples were obtained from each group. A portion of each blood sample taken was used for complete blood count (CBC) and the rest was centrifuged to obtain the serum. Serum was used for biochemical parameter estimation. The livers were rapidly dissected, washed with isotonic saline, and dried. The experiment design is summarized in Supplementary Figure S3.
(§2) Complete blood counts (CBCs) were counted using an AbbottCELLDYN®1800 Automated Hematology Analyzer (Abbott Park, IL, USA) equipped with an off-the-shelf kit (Abbott Laboratories, Abbott Park, IL, USA). For microscopic histopathological examination, tumor and kidney slices were maintained in 10% formalin, dehydrated with graduated alcohol, embedded in paraffin sections, H&E stained, and hematoxylin stained.

[4] = Serum biochemical parameters in mice; assay type: in vivo; conditions: SEC-bearing mice, 6 mg/Kg BW
Protocol: as §1
Evaluation of the activities of aspartate aminotransferase (AST) and alanine aminotransferase (ALT) using a commercial kit (ELITech Clinical Systems, France). The serum albumin level was measured using a kit obtained from STANBIO Company (USA). A commercial kit from the BioDiagnostic Company (Cairo, Egypt) was used to evaluate creatinine and urea levels.

[5] = Histopathological examination of liver and kidney (H&E); assay type: in vivo, mice; conditions: SEC-bearing mice treated
Protocol: as §1, §2
Specimens from mice liver cells were fixed in 10% formalin saline. Then, the samples were dehydrated with ascending series of ethanol and embedded in paraffin. A […] thick section was stained with hematoxylin and eosin and examined under a light microscope.

[6] = Homo sapiens, THLE-2, mean ± SE

## COc1ccc(/C=C2\C(=O)NC(=S)N2c2ccccc2)cc1 [Compound 1, (E)-5-(4-Methoxybenzylidene)-1-phenyl-2-thioxoimidazolidin-4-one]
HepG2 liver cancer cells; Homo sapiens, HepG2, 48 h
  IC50: 27.8 ± 0.94 µM

## O=C1NC(=S)N(c2ccccc2)/C1=C/c1cc2ccccc2[nH]1 [Compound 2, (E)-5-((1H-Indol-2-yl)methylene)-1-phenyl-2-thioxoimidazolidin-4-one]
HepG2 liver cancer cells; Homo sapiens, HepG2, 48 h
  IC50: 0.18 ± 0.03 µM
[1]; [6]
  IC50: 16.9 ± 1.11 µM

## CN1C(=S)NC(=O)/C1=C\c1ccc(N(C)C)cc1 [Compound 3, (E)-5-(4-(Dimethylamino)benzylidene)-1-methyl-2-thioxoimidazolidin-4-one]
HepG2 liver cancer cells; Homo sapiens, HepG2, 48 h
  IC50: 8.93 ± 0.75 µM

## CN1C(=S)N(CCN2CCOCC2)C(=O)/C1=C\c1ccc2c(c1)OCO2 [Compound 5, (E)-5-(3,4-Methylenedioxybenzylidene)-3-[2-(4-morpholino)ethyl]-1-methyl-2-thioxo-imidazolidin-4-one]
HepG2 liver cancer cells; Homo sapiens, HepG2, 48 h
  IC50: 1.94 ± 0.09 µM

## O=c1[nH]cc(F)c(=O)[nH]1 [Compound 5-FU, reference compound]
HepG2 liver cancer cells; 48 h
  IC50: 5.18 ± 0.53 µM
[1]; mean ± SE
  IC50: 43 ± 1.29 µM
[2]
  tumor volume on the final day: 4177 mm^3
[3]; SEC control 7.52 ± 0.5
  RBC’s count: 7.5 ± 0.8 ×10^6/µL
[3]; SEC control 11.8 ± 0.8, mean ± SE n = 9
  Hemoglobin: 10.6 ± 1.1 g/dL
[3]; SEC control 16.5 ± 3.4
  WBC’s count: 13.1 ± 4.1 ×10^3/µL
[4]
  Creatinine: 0.8 ± 0.1 mg/dL
[4]; SEC control 4.01 ± 0.4
  Albumin: 4.1 ± 0.3 g/dL
[4]; SEC control 6.6 ± 0.4
  Total Protein: 7.2 ± 0.4 g/dL
[4]; SEC control 25.2 ± 2.3
  Urea: 26.1 ± 2.7 mg/dL
[4]; SEC control 48.9 ± 5.5
  AST: 38 ± 4.6 U/L
[4]; SEC control 50 ± 2.7
  ALT: 39.1 ± 3.6 U/L
[5]
  kidney histopathology: moderate improvement; also recorded: few tubules show evidence of renal acute tubular injury ATI
  liver histopathology: Hydropic degeneration of hepatocytes, nuclear pyknosis, and karyolysis still occurred

## C=CCN1C(=O)/C(=C\c2ccc(C)cc2)NC1=S [Compound 6, (E)-3-Allyl-5-(4-methylbenzylidene)-2-thioxoimidazolidin-4-one]
HepG2 liver cancer cells; Homo sapiens, HepG2, 48 h
  IC50: 0.61 ± 0.08 µM
[1]; [6]
  IC50: 35.1 ± 1.33 µM

## O=C1/C(=C\c2cccs2)NC(=S)N1c1ccccc1 [Compound 7, (E)-3-Phenyl-5-(thiophen-2-ylmethylene)-2-thioxoimidazolidin-4-one]
HepG2 liver cancer cells; Homo sapiens, HepG2, 48 h
  IC50: 0.41 ± 0.009 µM
[1]; [6]
  IC50: 15.4 ± 0.74 µM

## CC(C)C1NC(=S)N(CN2CCOCC2)C1=O (stereo not drawn) [Compound 10, 5-Isopropyl-3-(morpholinomethyl)-2-thioxoimidazolidin-4-one]
HepG2 liver cancer cells; Homo sapiens, HepG2, 48 h
  IC50: 64.8 ± 1.63 µM

## CC(C)C1(CN2CCCCC2)NC(=S)N(CN2CCCCC2)C1=O (stereo not drawn) [Compound 11, 5-Isopropyl-3,5-bis(piperidin-1-ylmethyl)-2-thioxoimidazolidin-4-one]
HepG2 liver cancer cells; Homo sapiens, HepG2, 48 h
  IC50: 1.14 ± 0.05 µM

## CC(C)CC1(CN2CCOCC2)NC(=S)N(CN2CCOCC2)C1=O (stereo not drawn) [Compound 12, 5-Isobutyl-3,5-bis(morpholinomethyl)-2-thioxoimidazolidin-4-one]
HepG2 liver cancer cells; Homo sapiens, HepG2, 48 h
  IC50: 1.13 ± 0.066 µM

## CN[C@@H]1C[C@H]2O[C@@](C)([C@@H]1OC)n1c3ccccc3c3c4c(c5c6ccccc6n2c5c31)C(=O)NC4 [Staurosporine, reference compound]
HepG2 liver cancer cells; Homo sapiens, HepG2, 48 h
  IC50: 5.07 ± 0.22 µM
